Data published in patent US4820821A, “Novel pyridazinone-imines and their physiologically tolerated addition salts with acids, their preparation and therapeutic agents containing these compounds” (BASF Aktiengesellschaft, priority 1981, dated 1989).
Structures can show the parent of a compound that is named as a salt. Where two headings read alike, the source gives them in different places.

Tests used:
[1] = tested on: reserpine-induced hypothermia / blood pressure; assay: Quotient ED 50% antidepressive action / ED 20% hypertensive action; assay type: in vivo, mouse / rat; conditions: for Q Increase: Table 2, route of hypertensive test not given;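 as to Q Increase: larger quotient means more selective hypertensive action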
Description: This is evident from the fact that the quotient defined above differs wtih respect to the comparative compounds. […] This arises, inter alia, from the fact that the hypertensive ED 20 constitutes the denominator of the quotient. It is possible that the unforeseeable selective direction of action is attributable to the special substitution,in accordance with the invention, at the 4-imino group.

[2] = tested on: reserpine-induced hypothermia; assay: Antidepressive action: reserpine antagonism, inhibition of reserpine-induced hypothermia of the mouse; assay type: in vivo, male Swiss mice; conditions: for ED50: Mus musculus, dose based on the base, read-out: ED 50% (dose which inhibits the reserpine-induced hypothermia of the mouse by 50%); for R.A. (relative activity), reserpine antagonism: amezinium = 1.00, oral
Protocol: Antidepressants effect dose-dependent inhibition of this hypotherma. The test substances are administered orally 60 minutes before the administration of reserpine.
The dose which effects 50% inhibition of the reserpine-induced hypothermia is determined, as the ED 50%, from the linear regression between log dose (mg/kg) and relative reduction in hypothermia (Δ%).

blood pressure = assay: Effect on the blood pressure: hypertensive action, pithed rat; assay type: in vivo, male Sprague-Dawley rats; conditions: for ED20: Rattus norvegicus, dose based on the base, read-out: ED 20% hypertensive action (dose which increases the blood pressure of the pithed rat by 20%); for R.A. (relative activity), hypertensive action: amezinium = 1.00
Protocol: The measurement of the blood pressure in the carotid artery was carried out by means of Statham transducers. The substance was administered in the jugular vein (as an aqueous solution, 1 ml/kg) or intraperitoneally (as a tragacanth suspension, 2 ml/kg). The ED 20% is determined as the dose which increases the blood pressure by 20%.

[3] = Table 1, oral administration 60 min before reserpine
[4] = ip, Table 1, i.p. administration
[5] = iv, Table 1, i.v. administration

Compound | Q (quotient ED 50% antidepressive action/ED 20% hypertensive action) ([1]; hypertensive test i.p.) | ED50 [2, 3] [mg/kg] | R.A. (relative activity), reserpine antagonism ([2]; Table 1) | ED20 (blood pressure; [4]) [mg/kg] | R.A. (relative activity), hypertensive action (blood pressure; Table 1, i.p. administration) | Q (quotient ED 50% antidepressive action/ED 20% hypertensive action) ([1]; hypertensive test i.v.) | ED20 (blood pressure; [5]) [mg/kg] | R.A. (relative activity), hypertensive action (blood pressure; Table 1, i.v. administration) | also measured
O=C(N=c1ccn(-c2ccccc2)nc1)c1ccc(F)cc1 [Example 14, 1,4-dihydro-4-(4-fluorobenzoyl)-imino-1-phenylpyridazine hydrochloride] | – | – | – | – | – | – | – | – | Q Increase [1]: 23.81; factor by which the hypertensive dose (ED 20%) is smaller than the antidepressive effective dose (ED 50%) ([1]; compounds of Table 2): 24; ED50 ([2]; Table 2, oral administration): 1 mg/kg; R.A. (relative activity), reserpine antagonism ([2]; Table 2): 0.73; ED20 (blood pressure; Table 2, route not given): 0.042 mg/kg; R.A. (relative activity), hypertensive action (blood pressure; Table 2): 1.19
O=C(N=c1ccn(-c2ccccc2)nc1)c1ccccc1 [Example 16, 4-benzoylimino-1,4-dihydro-1-phenylpyridazine] | – | – | – | – | – | – | – | – | Q Increase [1]: 28.91; ED50 ([2]; Table 2, oral administration): 1.33 mg/kg; R.A. (relative activity), reserpine antagonism ([2]; Table 2): 0.55; ED20 (blood pressure; Table 2, route not given): 0.046 mg/kg; R.A. (relative activity), hypertensive action (blood pressure; Table 2): 1.09
COc1cc(=NC(=O)c2ccc(Cl)c(Cl)c2)cnn1-c1ccccc1 [Example 80] | < 0.15 | 1.5 | 0.49 | > 10 | < 0.04 | – | – | – | –
O=C(N=c1ccn(-c2ccccc2)nc1)C1CCC1 [Example 11, 4-(cyclobutylcarbonyl)-imino-1,4-dihydro-1-phenylpyridazine hydrochloride] | – | – | – | – | – | – | – | – | Q Increase [1]: 79.09; ED50 ([2]; Table 2, oral administration): 6.09 mg/kg; R.A. (relative activity), reserpine antagonism ([2]; Table 2): 0.12; ED20 (blood pressure; Table 2, route not given): 0.077 mg/kg; R.A. (relative activity), hypertensive action (blood pressure; Table 2): 0.65
C=CCOC(=O)N=c1ccn(-c2ccccc2)nc1 [Example 35] | – | 0.25 | 2.93 | – | – | 2.50 | 0.1 | 0.50 | –
CCC(=O)N=c1ccn(-c2ccccc2)nc1 [Example 3, 1,4-dihydro-1-phenyl-4-(propionylimino)-pyridazine hydrochloride] | – | 0.33 | 2.22 | – | – | 1.65 | 0.2 | 0.25 | –
O=C(N=c1ccn(-c2ccccc2)nc1)c1cc(Cl)cc(Cl)c1 [Example 15, 4-(3,5-dichlorobenzoyl)-imino-1,4-dihydro-1-phenylpyridazine] | < 0.27 | 2.7 | 0.27 | > 10 | < 0.04 | – | – | – | –
O=C(N=c1ccn(-c2ccccc2)nc1)c1ccc(Cl)cc1 [Example 19] | < 0.14 | 1.35 | 0.54 | > 10 | < 0.04 | – | – | – | –
C=C(C)C(=O)N=c1ccn(-c2ccccc2)nc1 [Example 12, 1,4-dihydro-4-methacryloylimino-1-phenylpyridazine] | – | – | – | – | – | – | – | – | Q Increase [1]: 34.09; ED50 ([2]; Table 2, oral administration): 0.75 mg/kg; R.A. (relative activity), reserpine antagonism ([2]; Table 2): 0.98; ED20 (blood pressure; Table 2, route not given): 0.022 mg/kg; R.A. (relative activity), hypertensive action (blood pressure; Table 2): 2.27
CCNC(=O)N=c1ccn(-c2ccccc2)nc1 [Example 84, 1,4-dihydro-4-(ethylcarbamyl)-imino-1-phenylpyridazine] | – | 0.37 | 1.98 | – | – | 0.80 | 0.464 | 0.11 | –
CCOC(=O)N=c1ccn(-c2ccccc2)nc1 [Example 29, 1,4-dihydro-4-(ethoxycarbonyl)-imino-1-phenylpyridazine hydrochloride] | – | 0.86 | 0.85 | – | – | 4.00 | 0.215 | 0.23 | –
COc1cc(=NC(=O)c2ccccc2)cnn1-c1ccccc1 [Example 60] | 0.43 | 0.93 | 0.79 | 2.15 | 0.17 | – | – | – | –
COc1cc(OC)cc(C(=O)N=c2cnn(-c3ccccc3)c(OC)c2)c1 [Example 62] | – | 0.66 | 1.11 | – | – | 1.18 | 0.56 | 0.09 | –
COc1cc(=NC(=O)c2ccccc2Cl)cnn1-c1ccccc1 [Example 64] | < 0.13 | 1.27 | 0.58 | > 10 | < 0.04 | – | – | – | –
Cc1cccc(C(=O)N=c2ccn(-c3ccccc3)nc2)c1 [Example 23] | 0.98 | 0.98 | 0.74 | 1 | 0.37 | – | – | – | –
C=CCOC(=O)N=c1cnn(-c2ccccc2)c(OC)c1 [Example 72] | – | 1.47 | 0.50 | – | – | 3.17 | 0.464 | 0.11 | –
CCCCOC(=O)N=c1cnn(-c2ccccc2)c(OC)c1 [Example 71] | – | 0.76 | 0.96 | – | – | 1.64 | 0.464 | 0.11 | –
CNC(=O)N=c1ccn(-c2ccccc2)nc1 [Example 31, 1,4-dihydro-4-(methylcarbamyl)-imino-1-phenylpyridazine] | – | 0.28 | 2.62 | – | – | 0.19 | 1.47 | 0.03 | factor by which the quotient of antidepressive action and hypertensive action is smaller than in the case of amezinium ([1]; compounds of Table 1): 77
CCCC(=O)N=c1cnn(-c2ccccc2)c(OC)c1 [Example 52] | 0.44 | 1.4 | 0.52 | 3.16 | 0.12 | – | – | – | –
COc1cc(=NC(=O)c2ccc(Cl)cc2)cnn1-c1ccccc1 [Example 66] | < 0.18 | 1.8 | 0.41 | > 10 | < 0.04 | – | – | – | –
COc1cc(=NC(=O)NCc2ccccc2)cnn1-c1ccccc1 [Example 74] | – | 8.45 | 0.09 | – | – | 1.82 | 4.64 | 0.01 | –
CCSC(=O)N=c1cnn(-c2ccccc2)c(OC)c1 [Example 73] | < 0.12 | 1.23 | 0.60 | > 10 | < 0.04 | – | – | – | –
CNC(=S)N=c1ccn(-c2ccccc2)nc1 [Example 86, 1,4-dihydro-4-(methylthiocarbamyl)-imino-1-phenylpyridazine] | – | 2.1 | 0.35 | – | – | < 2.1 | > 1 | < 0.05 | –
